Experimental data published in ChEMBL document CHEMBL1201862, “PubChem BioAssay data set” (2004).
Active and inactive are the calls of the source. No stated cut-off is given here; in the data, actives have a measured IC50 and inactives only a lower limit.

Biological target: Envelope glycoprotein gp160 (Human immunodeficiency virus 1, UniProt Q6QLK5)
Assay: cell-free HIV fusion peptide-binding blockers – biochemical, uHTS, fluorescence dequenching, […] (AID 1986)

Chain of Envelope glycoprotein gp160 (Q6QLK5 whole entry, the tested form may be a part): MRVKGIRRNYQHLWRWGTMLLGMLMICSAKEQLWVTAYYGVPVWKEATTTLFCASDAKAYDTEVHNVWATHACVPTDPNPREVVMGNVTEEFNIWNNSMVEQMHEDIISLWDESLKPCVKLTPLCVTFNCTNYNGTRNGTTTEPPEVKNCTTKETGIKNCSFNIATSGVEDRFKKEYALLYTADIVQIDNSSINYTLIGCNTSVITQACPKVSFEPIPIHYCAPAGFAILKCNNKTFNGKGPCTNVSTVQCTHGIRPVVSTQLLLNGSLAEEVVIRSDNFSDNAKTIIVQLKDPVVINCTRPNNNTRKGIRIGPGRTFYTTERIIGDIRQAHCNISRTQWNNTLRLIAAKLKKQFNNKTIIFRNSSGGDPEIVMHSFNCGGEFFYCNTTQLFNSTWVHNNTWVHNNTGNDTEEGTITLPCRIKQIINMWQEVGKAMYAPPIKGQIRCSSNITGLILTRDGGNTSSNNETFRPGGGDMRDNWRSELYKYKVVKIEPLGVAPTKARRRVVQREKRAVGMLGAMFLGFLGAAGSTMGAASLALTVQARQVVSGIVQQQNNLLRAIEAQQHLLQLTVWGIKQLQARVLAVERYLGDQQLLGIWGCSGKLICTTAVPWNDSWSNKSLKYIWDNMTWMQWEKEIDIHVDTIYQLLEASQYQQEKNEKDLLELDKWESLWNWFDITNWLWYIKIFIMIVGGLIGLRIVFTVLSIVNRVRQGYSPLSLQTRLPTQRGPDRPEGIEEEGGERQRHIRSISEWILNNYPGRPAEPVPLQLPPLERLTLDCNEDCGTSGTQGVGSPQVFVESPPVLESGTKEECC

CCOC(=O)c1sc(N2C(=O)C(O)=C(C(=O)c3ccc(C)o3)C2c2cccc([N+](=O)[O-])c2)nc1C (stereo not given)
IC50: 17.6 µM (active)

COc1cccc(C2C3=C(N=c4s/c(=C\c5ccc(OCC(=O)O)cc5)c(=O)n42)c2ccccc2CC3)c1 (stereo not given)
IC50: 18.6 µM (active)

Cc1cc(N2C(=O)C(O)=C(C(=O)c3ccc(C)o3)C2c2cccc(Oc3ccccc3)c2)no1 (stereo not given)
IC50: 24.1 µM (active)

Cc1cc(N2C(=O)C(O)=C(C(=O)c3cc4ccccc4o3)C2c2ccc(Cl)cc2)no1 (stereo not given)
IC50: 15.9 µM (active)

O=C(O)c1ccc(-c2ccc(/C=C3\NC(=O)N(Cc4ccc(Cl)cc4)C3=O)o2)cc1Cl
IC50: 10.7 µM (active)
